Reference: patent US7807462B2, “Method for producing a functional neuron” (University of Medicine and Dentistry of New Jersey, priority 2004, dated 2010)

What was measured:
[1] = system: PPT-I gene expression in retinoic acid-treated MSC; assay: In situ hybridization for β-PPT-I in RA-treated MSC; type: cell-based, human; conditions: cocktail of three antisense oligomers; three bone marrow donors
Method: Thus, it was determined whether the PPT-I gene was expressed in retinoic acid-treated MSC by in situ hybridization with a cocktail of three oligomers.
MSC were cultured as above on superfrost slides and then washed with 0.05% PBT. Cells were hybridized by incubation with 500 μL of hybridization buffer (Sigma, St. Louis, Mo.). After 2 hours, slides were incubated with 200 μL of hybridization buffer containing a cocktail (200 ng/mL) of denatured biotin-conjugated β-PPT-1-specific oligo probes based on GENBANK Accession No. U37529 (Table 1). Control slides were incubated with a mixture of similar oligos in the sense orientations. Slides were subsequently incubated overnight at 37° C. in a humid chamber. Slides were washed with SSC solution and hybrids detected by incubation for 1 hour at room temperature with FITC-streptavidin at 1/500 dilution. Slides were covered with PBS and immediately examined with an immunofluorescence microscope.

[2] = system: adult human mesenchymal stem cells (MSC); assay: Microscopic examination of morphology of retinoic acid-treated MSC; type: cell-based; conditions: RA 30 μM
Method: By way of illustration, MSC were treated with all-trans-retinoic acid and examined microscopically at 400× magnification. The purpose was to observe morphological changes as the cells were exposed to a known differentiating agent.

[3] = system: MSC treated with retinoic acid for 6 days (functional neurons); assay: Immunofluorescence/immunohistochemistry for substance P (SP) in RA-treated MSC; type: cell-based, human
Method: Administration or implantation of cultured neurons in a damaged tissue, in vivo, is influenced by the microenvironment. Thus, to determine whether a functional neuron could be influenced to express a particular neurotransmitter, expression of the preprotachykinin-I gene (PPT-I), which encodes the neurotransmitter substance P (SP), was analyzed. Regulation of the PPT-I gene has been studied in the context of inflammatory mediators that are presumed to be at the site of neural injury. […] Furthermore the receptor for IL-1 has been reported in neurons (Coti, et al. (2004) Frontier Biosci. 9:1433-1449). MSC, treated with retinoic acid for 6 days, were stimulated with 10 ng/mL of IL-1α for 16 hours and the cells studied for SP production by immunofluorescence using anti-SP. Treated cells were also labeled for synaptovesicle 2 to determine if SP is stored in synaptic vesicle. […] Retinoic acid-treated MSC were labeled with anti-SP and anti-synaptovesicle. The two labels were overlaid to gain insight as to the location of SP. […]
MSC on superfrost slides were treated with RA. […] The latter determined whether SP was stored in synaptic vesicles. SP and anti-synaptic vesicle protein 2 were detected with anti-rabbit IgG FITC and anti-mouse IgG1 κ PE, respectively. […]

[4] = system: adult human mesenchymal stem cells (MSC); assay: Immunofluorescence for neural-specific markers in RA-treated MSC; type: cell-based
Method: It was subsequently determined whether the retinoic acid-treated MSC express neuron-specific proteins. Cells were labeled for MAP2, which predominantly labels the cell bodies and dendrites; Neurofilament to stain for cell bodies and axons; and nestin for changes in morphology to neuronal cells. Synaptophysin was also analyzed as it is an indicator of synaptic regions. Labeling with anti-MAP2 and anti-synaptophysin were performed at different times following retinoic acid treatment. Untreated MSCs stained dim with MAP2, but negative for synaptophysin. In contrast, retinoic acid-treated cells stained bright for MAP2 at each time point, i.e., day 6, day 9 and day 12 retinoic acid treatment. […] This pattern of synaptophysin increased up to day 12 of treatment. Patterns were similar in ten different experiments, each with MSC from a different bone marrow donor.
RA-treated MSCs were washed with PBS (pH 7.4) and incubated for 1 hour at room temperature with the following antibodies: rabbit anti-MAP2 and/or synaptophysin monoclonal antibody at final concentrations of 1/500 and 1/200 respectively. In other labeling studies, cells were incubated with anti-GFAP, anti-neurofilament or anti-nestin, each at 1/500 final concentration. Antibodies were diluted in 0.05% TWEEN™/PBS (PBT) for membrane permeabilization. Primary antibodies were developed with secondary FITC-goat anti-rabbit IgG and PE-rat anti-mouse κ, both at final concentrations of 1/500. Secondary antibodies were incubated for 45 minutes at room temperature in the dark. After labeling, cells were fixed with 0.4% paraformaldehyde and then covered with VECTASHIELD®. Slides were immediately examined on a 3-color immunofluorescence microscope (NIKON® Instruments Inc., Melvelle, N.Y.).

[5] = system: adult human mesenchymal stem cells (MSC); assay: Whole-cell patch clamp electrophysiological recordings of RA-treated MSC; conditions: for postsynaptic current amplitude / postsynaptic current decay time / postsynaptic current frequency / postsynaptic current half rise time: voltage clamp
[6] = functional neurons in culture for 6 days

CC1=C(/C=C/C(C)=C/C=C/C(C)=C/C(=O)O)C(C)(C)CCC1 [retinoic acid, All-trans-retinoic acid]
PPT-I in situ hybridization fluorescence in cell bodies of neurons [1]: bright fluorescence
morphology of treated MSC ([2]; day 4): neuron-like structures
morphology of treated MSC ([2]; day 7): cell bodies with long thin processes and growth cones
morphology of treated MSC ([2]; treated 1 day, 400× magnification): asymmetrical morphology
fluorescence for SP in unstimulated treated MSC ([3]; no IL-1α stimulation): dim fluorescence
synaptophysin fluorescence ([4]; 6-day treatment): slight fluorescence
glial fibrillary acidic protein (GFAP) staining ([4]; all treated cells): negative
synaptophysin fluorescence ([4]; day 9 of treatment): brighter fluorescence
MAP2 staining ([4]; each time point: day 6, day 9 and day 12 of treatment, ten experiments): bright
percentage of functional neurons developed, by immunostaining for neurofilament, MAP2 and nestin ([4]; n=100): 80±10 percentage
synaptophysin fluorescence ([4]; up to day 12 of treatment): increased
resting membrane potential ([5]; current clamp): −50 mV
spontaneous action potential firing frequency ([5]; current clamp): 20 s⁻¹
action potential amplitude ([5]; current clamp, measured from resting membrane potential): 63.4±17.4 mV
action potential half-width ([5]; current clamp, n=768 events): 19.25 ± 0.73 ms
action potential rise time ([5]; current clamp, n=768 events): 3.39 ± 0.11 ms
fit of decay of postsynaptic currents [5, 6]: single exponential function
half rise time of some spontaneous post-synaptic currents [5, 6]: around 2 ms
fit of decay of postsynaptic currents ([5]; functional neurons in culture for 15 days): two exponentials
treated cells showing action potential by electrophysiology ([5]; n=25): one hundred
postsynaptic current amplitude ([5]; first set, n=171 events): 29.9±1.3 pA
postsynaptic current decay time ([5]; first set, n=171 events): 36.5 ± 1.0 ms
postsynaptic current frequency ([5]; first set, n=171 events): 2.49 s⁻¹
postsynaptic current half rise time ([5]; first set, n=171 events): 12.96 ± 0.89 ms
postsynaptic current amplitude ([5]; second set, n=99 events): 6.1±0.2 pA
postsynaptic current decay time ([5]; second set, n=99 events): 31.3 ± 1.3 ms
postsynaptic current frequency ([5]; second set, n=99 events): 1.24 s⁻¹
postsynaptic current half rise time ([5]; second set, n=99 events): 1.84 ± 0.13 ms

B1: IL-1α: Recombinant human IL-1α (rhIL-1α) provided by Hoffman LaRoche (protein, UniProt P01583 113-271, looked up)
Interleukin-1 alpha: SAPFSFLSNVKYNFMRIIKYEFILNDALNQSIIRANDQYLTAAALHNLDEAVKFDMGAYKSSKDDAKITVILRISKTQLYVTAQDEDQPVLLKEMPEIPKTITGSETNLLFFWETHGTKNYFTSVAHPNLFIATKQDYWVCLAGGPPSITDFQILENQA
fluorescence intensity for SP ([3]; MSC treated with retinoic acid 6 days, stimulated with 10 ng/mL IL-1α for 16 hours, six experiments): bright fluorescence intensity
